Assay results published in BindingDB's records for doi:10.7270/Q2377749 (Nmmlsc, 2010).

Target: Ras-related C3 botulinum toxin substrate 1 (Mus musculus, UniProt P63001)
Test: wildtype Rac1 GTP binding inhibitors, dose response, biochemical, multiplex bead flow cytometry (AID 1340)

SMILES | EC50 [nM]
O=C(O)c1ccccc1Sc1ncnc2sc3c(c12)CCC3 | 1220
COc1cc(CN=Nc2nnc3c(n2)[nH]c2ccccc23)ccc1O | 634
CN1C(=O)N(C)c2ccc(C=O)c3cccc1c23 [1,3-dimethyl-2-oxidanylidene-perimidine-6-carbaldehyde] | 20800
CCCc1nc2c(=O)n(C)c(=O)nc-2n(C)n1 [1,6-dimethyl-3-propyl-pyrimido[5,4-e][1,2,4]triazine-5,7-dione] | 623
O=C(O)c1cn(CCOc2ccccc2)c2ccccc12 [1-(2-phenoxyethyl)-3-indolecarboxylic acid] | 5440
O=C(C#Cc1ccccc1)c1cccc([N+](=O)[O-])c1 [1-(3-nitrophenyl)-3-phenyl-2-propyn-1-one] | 19200
Cc1ccc(C)c(OCCn2cc(C(=O)O)c3ccccc32)c1 [1-[2-(2,5-dimethylphenoxy)ethyl]-3-indolecarboxylic acid] | 802
OC(CNCCc1ccc(Cl)cc1)COc1ccc2ccccc2c1 (configuration not stated) [1-[2-(4-chlorophenyl)ethylamino]-3-(2-naphthalenyloxy)-2-propanol] | 7190
CC(=O)c1c(C)[nH]c(C(=O)N2CCc3ccccc3C2)c1C [1-[5-(3,4-dihydro-1H-isoquinolin-2-ylcarbonyl)-2,4-dimethyl-1H-pyrrol-3-yl]ethanone] | 5130
O=C(NNC(=S)NCc1ccc(Cl)cc1)c1ccc(Br)o1 [1-[(5-bromanylfuran-2-yl)carbonylamino]-3-[(4-chlorophenyl)methyl]thiourea] | 85.7
Cc1cc(C)c(C)c(C(=O)c2ccccc2C(=O)O)c1C [2-(2,3,5,6-tetramethylbenzoyl)benzoic acid] | 2240
Cc1cc(C(=O)Oc2ccccc2C(=O)O)c(C)o1 [2-(2,5-dimethyl-3-furoyl)oxybenzoic acid] | 102
O=C(O)c1ccccc1OCc1ccccc1Br [2-(2-bromobenzyl)oxybenzoic acid] | 151
CC1(C)Cc2c(sc(NC(=S)NC(=O)c3ccccc3)c2C(=O)O)CO1 [2-(benzoylcarbamothioylamino)-5,5-dimethyl-4,7-dihydrothieno[2,3-c]pyran-3-carboxylic acid] | 80.6
O=C(O)c1ccccc1NCCc1ccc(Cl)cc1 [2-[2-(4-chlorophenyl)ethylamino]benzoic acid] | 1520
CC(C)C(NCc1c(Cl)cccc1Cl)C(=O)O (configuration not stated) [2-[(2,6-dichlorobenzyl)amino]-3-methyl-butyric acid] | 5800
O=C(O)c1ccccc1NCc1ccccc1Cl [2-[(2-chlorobenzyl)amino]benzoic acid] | 899
Cc1cc(NC(=O)CSc2nc(O)c(C#N)c(-c3ccccc3)n2)no1 [2-[(5-cyano-4-oxidanylidene-6-phenyl-1H-pyrimidin-2-yl)sulfanyl]-N-(5-methyl-1,2-oxazol-3-yl)ethanamide] | 9540
N#Cc1c(-c2ccccc2)nc(SCC(=O)Nc2ccccc2)[nH]c1=O [2-[(5-cyano-4-oxo-6-phenyl-1H-pyrimidin-2-yl)thio]-N-phenylacetamide] | 3540
COc1ccc(-c2nnc(SCC(=O)c3cccs3)o2)cc1 [2-[[5-(4-methoxyphenyl)-1,3,4-oxadiazol-2-yl]sulfanyl]-1-thiophen-2-yl-ethanone] | 6390
COc1cc(C=NNC(=O)c2sc(N)nc2C)cc(OC)c1OC [2-amino-4-methyl-N-[(3,4,5-trimethoxyphenyl)methylideneamino]-5-thiazolecarboxamide] | 1670
Cc1cc(C(=O)Cn2nc(C(=O)O)c3ccccc3c2=O)c(C)n1-c1ccc(OC(F)F)cc1 [3-[2-[1-[4-(difluoromethoxy)phenyl]-2,5-dimethyl-3-pyrrolyl]-2-oxoethyl]-4-oxo-1-phthalazinecarboxylic acid] | 5900
O=C(O)CCN1C(=O)/C(=C/c2ccc(-c3nc4ccccc4s3)o2)SC1=S [3-[(5Z)-5-[[5-(1,3-benzothiazol-2-yl)furan-2-yl]methylidene]-4-oxo-2-sulfanylidene-1,3-thiazolidin-3-yl]propanoic acid] | 976
CCn1nc(C(=O)OCC(=O)c2cc(C)n(Cc3cccs3)c2C)c2ccccc2c1=O [3-ethyl-4-keto-phthalazine-1-carboxylic acid [2-[2,5-dimethyl-1-(2-thenyl)pyrrol-3-yl]-2-keto-ethyl] ester] | 892

SMILES | EC50 [nM]
CCOC(=O)c1nc(Nc2ccc(C(C)=O)cc2)c2ccccc2n1 [4-(4-acetylanilino)-2-quinazolinecarboxylic acid ethyl ester] | 3400
COc1ccc(C(=O)CC=Nc2ccc(S(=O)(=O)Nc3nc(C)cc(C)n3)cc2)cc1OC [4-[3-(3,4-Dimethoxy-phenyl)-3-oxo-propenylamino]-N-(4,6-dimethyl-pyrimidin-2-yl)-benzenesulfonamide] | 3120
CC(C)Oc1ccc(C=NNC(=O)c2ccc(N(Cc3ccccc3)S(C)(=O)=O)cc2)cc1 [4-[benzyl(mesyl)amino]-N-[(4-isopropoxybenzylidene)amino]benzamide] | 5170
COc1ccccc1NCc1sc(C(=O)O)cc1C [4-methyl-5-(o-anisidinomethyl)-2-thenoic acid] | 16000
O=C(O)c1ccc(COc2ccccc2Cl)o1 [5-[(2-chloranylphenoxy)methyl]furan-2-carboxylic acid] | 26300
COc1ccc(Cl)cc1NCc1sc(C(=O)O)cc1C [5-[(5-chloro-2-methoxy-anilino)methyl]-4-methyl-2-thenoic acid] | 1820
Cc1cccc(-n2nc(CC#N)c(C#N)c2N)c1 [5-amino-3-(cyanomethyl)-1-(3-methylphenyl)-4-pyrazolecarbonitrile] | 28400
Cc1sc2nc3ccc(NCc4ccco4)nn3c(=O)c2c1C [7-(2-furanylmethylamino)-2,3-dimethyl-4-thieno[1,2]pyrimido[4,5-b]pyridazinone] | 9210
CCN(CC)c1ccc2cc(-c3nc(-c4ccc(OC)cc4)cs3)c(=O)oc2c1 [7-(diethylamino)-3-[4-(4-methoxyphenyl)-1,3-thiazol-2-yl]chromen-2-one] | 372
O=C1/C(=C\c2cccnc2)Sc2ccccc21 [(2E)-2-(3-pyridinylmethylidene)-1-benzothiophen-3-one] | 93100
Cc1cc(C)cc(N=Cc2[nH]c3ccc(Br)c(Cl)c3c2O)c1 [(2Z)-5-bromo-4-chloro-2-[(3,5-dimethylanilino)methylidene]-1H-indol-3-one] | 3030
CCOc1ccc(/C=C2\SC(N3CCc4ccccc4C3)=NC2=O)cc1 [(5Z)-2-(3,4-dihydro-1H-isoquinolin-2-yl)-5-(4-ethoxybenzylidene)-2-thiazolin-4-one] | 4020
O=C(O)/C=C/c1cn(Cc2ccccc2)nc1-c1cccs1 [(E)-3-(1-benzyl-3-thiophen-2-ylpyrazol-4-yl)prop-2-enoic acid] | 2280
O=C(O)/C=C/c1cn(Cc2ccccc2)nc1-c1ccc(Cl)cc1 [(E)-3-[1-benzyl-3-(4-chlorophenyl)pyrazol-4-yl]acrylic acid] | 164
O=C(Nc1nc(-c2ccc(S(=O)(=O)N3CCCC3)cc2)cs1)c1ccco1 [MLS000049286] | 1760
O=C(COc1ncnc2cc([N+](=O)[O-])ccc12)NCCc1ccc(Cl)cc1 [MLS000335629] | 5410
O=C(NC1CCCCC1)c1cc([N+](=O)[O-])n[nH]1 [MLS000559279] | 55300
Cc1ccccc1C(=O)Nc1ccc2c(C#N)c3nc4ccccc4nc3n2c1 [MLS000591720] | 291
N=C(N)NS(=O)(=O)c1ccc(NC(=S)NC(=O)c2ccc3c(c2)OCO3)cc1 [MLS000621545] | 2800
COCCn1c(=S)[nH]c2cc(C(=O)N3CCc4ccccc4C3)ccc2c1=O [SMR000310652] | 605
COc1cc(SC#N)ccc1N=Cc1c(C)[nH]n(-c2ccc(C)c(C)c2)c1=O [[4-[[(Z)-[1-(3,4-dimethylphenyl)-3-methyl-5-oxidanylidene-pyrazol-4-ylidene]methyl]amino]-3-methoxy-phenyl] thiocyanate] | 966
NC(=S)NNC1=c2cc(F)ccc2=NC1=O [[(5-fluoro-2-oxoindol-3-yl)amino]thiourea] | 3460
CCOC(=O)CN(C(=O)CSc1nnc2c(n1)[nH]c1ccc(OC)cc12)c1ccc(F)cc1 [ethyl 2-[(4-fluorophenyl)-[2-[(8-methoxy-5H-[1,2,4]triazino[5,6-b]indol-3-yl)sulfanyl]ethanoyl]amino]ethanoate] | 923
